In general, IC50 refers to the concentration needed to halve the response being measured.

These results are taken from patent US5652250A, “N-substituted β-aryl- and β-heteroaryl-α-cyanoacrylamide derivatives and process for their preparation” (Pharmacia S.p.A., priority 1994, dated 1997).

One experiment concerns K562 cells. Briefly: K562 Cell Growth Inhibition Assay. The format is cell-based. The note with it: K562 human myelogenous leukemia cells, 72 h. On the procedure:
K562 cells, a human myelogenous leukemia cell line, were seeded into a 24 wells tissue culture plate (Falcon 3047) (10000/well) in the presence of increasing concentrations of the compounds. After 72 h, cells were harvested and were counted using a cell counter (Coulter Counter--ZM). The percent of inhibition was evaluated in respect to the untreated control cells.

Experiment [1] concerns the target p45 v-abl tyrosine kinase. In words: p45 v-abl Kinase Assay ((Val^5)-Angiotensin II phosphorylation). Conditions: (Val^5)-Angiotensin II 2 mM, ATP 50 μM, pH 8.0, 30° C., read-out: Inhibition of p45 v-abl kinase IC50. The format is biochemical, Abelson murine leukemia virus. Here is the method: The enzyme used in our test was the p45 v-abl tyrosine kinase which represents the catalytic domain of the Abelson tyrosine kinase (isolated from the Abelson murine leukemia virus). The p45 v-abl kinase was produced and isolated as described by Wang et al. in J. Biol. Chem. 260, 64 (1985) and by Ferguson et al. in J. Biol. Chem. 260, 3652 (1985) and in Biochem. J. 257, 321 (1989).
(Val^5)-Angiotensin II phosphorylation was performed by incubation with 40 ng of purified abl-kinase and (γ^32 P)-ATP, in 50 μl of buffer containing Tris-HCl 25 mM, pH 8.0, MgCl2 10 mM and dithiothreitol 0.1 mM (kinase buffer). The reaction mixture was incubated for the indicated time at 30° C. and the reaction stopped by adding 50 μl of 5% trichloroacetic acid. After a brief incubation on ice, tubes were centrifuged. The supernatants were spotted on phosphocellulose paper squares (Whatman P-81) and washed extensively in acetic acid. The radioactivity bound to dried phosphocellulose squares was measured in a liquid scintillation counter. IC50 values were calculated from triplicate determinations of each experimental point. Each inhibitor was tested at concentrations ranging from […] in the presence of fixed concentrations of peptide (2 mM) and ATP (50 μM).

In the case of `N#CC(=Cc1ccc(O)c2ncccc12)C(=O)Nc1ccccc1` [N-phenyl β-(8-hydroxy-5-quinolyl)-α-cyanoacrylamide], the IC50 in the experiment with K562 cells worked out at 660 nM; in experiment [1], 3.4 µM.
